Results: PubChem BioAssay (NCI)
Values joined by “and” are separate entries in the source; they are usually repeats but may differ in a detail not shown here. Equal entries are not always repeated.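 All cell lines were grown in 96-well plates and treated with compound for 48 hours. Here, GI50 denotes the concentration required for 50% inhibition of growth. Definition used: TGI = concentration required for complete inhibition of growth.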

Tests used:
Assay in all cases: NCI tumour cell line growth inhibition, 48 h
IGROV1 ovarian = tested on: IGROV1 ovarian
MDA-MB-231 breast = tested on: MDA-MB-231 breast
HCT-116 colon = tested on: HCT-116 colon
MOLT-4 leukemia = tested on: MOLT-4 leukemia
NCI-H23 lung = tested on: NCI-H23 lung
HS 578T breast = tested on: HS 578T breast
TK-10 renal = tested on: TK-10 renal
SR leukemia = tested on: SR leukemia
OVCAR-4 ovarian = tested on: OVCAR-4 ovarian
COLO 205 colon = tested on: COLO 205 colon

SMILES	GI50 (IGROV1 ovarian)	GI50 (MDA-MB-231 breast)	TGI (MDA-MB-231 breast)	GI50 (HCT-116 colon)	TGI (HCT-116 colon)	GI50 (MOLT-4 leukemia)	TGI (MOLT-4 leukemia)	GI50 (NCI-H23 lung)	TGI (NCI-H23 lung)	GI50 (HS 578T breast)	TGI (HS 578T breast)	GI50 (TK-10 renal)	TGI (TK-10 renal)	GI50 (SR leukemia)	TGI (SR leukemia)	GI50 (OVCAR-4 ovarian)	TGI (OVCAR-4 ovarian)	GI50 (COLO 205 colon)	TGI (COLO 205 colon)	TGI (IGROV1 ovarian)
COc1ccc(-c2[nH]c3ccccc3c2/C=C(\C#N)S(=O)(=O)c2ccccc2)cc1	3.44 µM	0.58 µM	> 60.8 µM	0.391 µM	> 38 µM	0.666 µM	8.39 µM	0.769 µM	> 61.1 µM	0.671 µM	> 46 µM	3.65 µM	> 100 µM	0.344 µM	4.9 µM	0.559 µM	> 31.8 µM	0.253 µM	0.67 µM	
CN(C)CCCn1c2c(c3cc4c(cc3c1=O)OCO4)C(=O)c1ccccc1-2	3.33 µM	0.465 µM	4.29 µM		0.384 µM	< 0.0218 µM	0.792 µM	0.231 µM		11.5 µM	43.4 µM	3.42 µM	17.9 µM		0.0486 µM	0.715 µM	> 23.3 µM	7.61 µM	> 100 µM	12.6 µM
S=C(NCc1ccc2c(c1)OCO2)N1CCN(c2ncnc3c2oc2ccccc23)CC1	> 100 µM	> 100 µM	> 100 µM	3.68 µM	> 100 µM	3.95 µM	> 100 µM	5.34 µM	> 100 µM	> 100 µM	> 100 µM	1.12 µM		3.7 µM	> 100 µM	0.451 µM	> 100 µM	66.1 µM	> 100 µM	> 100 µM
C=CCN(CC=C)C(=O)[C@H](CC)[C@@H]1CC[C@@H](C)[C@@H]([C@H](C)[C@@H](O)[C@@H](C)C(=O)[C@H](CC)C2O[C@]3(C=C[C@@H](O)[C@]4(CC[C@@](C)([C@H]5CC[C@](O)(CC)[C@H](C)O5)O4)O3)[C@H](C)C[C@@H]2C)O1 (some centres undefined)	2.41 µM	1.77 µM	3.84 µM	2.81 µM	10.1 µM	2.33 µM	6.01 µM	2.48 µM	6.93 µM	2.22 µM	6.27 µM	3.65 µM	> 100 µM	2.41 µM	7.1 µM	2.63 µM	10.1 µM	2.56 µM	6.23 µM	8.53 µM
C=CC(=O)N[C@@H](/C=C/C(=O)OCC)Cc1ccc(-c2cc(Cl)cc(Cl)c2)cc1	12.7 µM	12.8 µM	48.8 µM	5.29 µM	34.2 µM	7.14 µM	> 100 µM	11.8 µM	> 100 µM	16.3 µM	78.4 µM	21.9 µM	97.7 µM	5.63 µM	44.8 µM	5.23 µM	74.4 µM	14.8 µM	53.9 µM	> 100 µM
C/C(=N\NC(=S)N1CCN(c2ccccn2)CC1)c1ncccn1	< 0.0121 µM		19.4 µM		5.05 µM and 14.7 µM		7.02 µM and > 38.4 µM	< 0.016 µM	4.81 µM and 19.3 µM	3.01 µM	31.2 µM	1.71 µM	18.5 µM	0.0622 µM	12.3 µM	2.44 µM	4.26 µM and 21.2 µM	< 0.0245 µM		4.31 µM and 16.3 µM
Cn1c(C(=O)c2cccc3ccccc23)nc2ccccc21	> 100 µM	> 100 µM	> 100 µM	> 100 µM	> 100 µM	> 100 µM	> 100 µM	> 100 µM	> 100 µM	> 100 µM	> 100 µM	> 100 µM	> 100 µM	> 100 µM	> 100 µM	35.1 µM	> 100 µM	> 100 µM	> 100 µM	> 100 µM
CC(C)(C)c1cc(C(=O)O)c2c(c1)C(=O)OC2(c1ccccc1)c1ccccc1C(=O)O (centres undefined)	> 100 µM	> 100 µM	> 100 µM		> 100 µM		> 100 µM		> 100 µM	> 100 µM	> 100 µM		> 100 µM		> 100 µM		> 100 µM		> 100 µM	> 100 µM
COc1ccc(OC)c(Cc2cnc3nc(N)nc(N)c3c2C)c1			33.8 µM		30.4 µM		23.5 µM		> 50.1 µM		49.7 µM		> 84.7 µM		21.7 µM		28.8 µM		> 52.6 µM	2.61 µM
O=c1[nH]c(=S)[nH]c(-c2ccccc2)c1Cc1c(O)ccc2ccccc12			> 100 µM		74.4 µM		> 100 µM		90.6 µM		> 100 µM		59.3 µM		> 100 µM		> 100 µM		42.1 µM	> 100 µM
COc1ccc(/C=N\Nc2nc(SCC(C)C)nc(-c3ccc(OC)cc3)c2C#N)cc1	1.92 µM	6.66 µM	25 µM	0.679 µM	15.3 µM	12.9 µM	> 100 µM	12.2 µM	31.7 µM	3.98 µM	30.9 µM	2.02 µM	8.62 µM	8.69 µM	96 µM	0.417 µM	1.83 µM	3.72 µM	23.4 µM	20 µM
Cc1cc(O)c2c3c(ccc2c1)C(=O)c1c(O)cccc1C3=O			> 100 µM		> 100 µM		> 39.1 µM		> 100 µM		> 100 µM		> 100 µM		26.5 µM		29.8 µM		12.4 µM	> 20.3 µM
c1ccc(C2CCCCC2)c(OCCCCCN2CCNCC2)c1	2.77 µM	1.62 µM	3.75 µM	1.65 µM	4.19 µM	1.63 µM	5.07 µM	5.72 µM	22.2 µM	3.61 µM	22.1 µM	5.67 µM	19.3 µM	0.995 µM	4.56 µM	4.01 µM	17 µM	1.45 µM	3.31 µM	12.6 µM
COc1ccc(C2CC(c3ccc(N(C)C)cc3)=NN2c2ccc(S(N)(=O)=O)cc2)cc1 (centres undefined)	4.31 µM	4.73 µM	60.3 µM	2.12 µM	4.77 µM	3.91 µM	> 100 µM	3.13 µM	> 100 µM	5.52 µM	42.6 µM	4.32 µM	35 µM	3.77 µM	> 100 µM	3.19 µM	> 100 µM	2.46 µM	5.49 µM	> 100 µM
COC1=C(OC)[C@]2(OC)c3c(O)c(OC)c4c(c3O[C@@]23O[C@@H](c2ccccc2)CC=C3C1=O)[C@@H](OC)C[C@H](c1ccccc1)O4	0.374 µM	0.445 µM	1.7 µM	0.226 µM	0.517 µM	0.0401 µM	0.194 µM	0.277 µM	1.01 µM	0.896 µM	3.66 µM	0.821 µM	1.93 µM	0.0317 µM	0.133 µM	0.667 µM	2.15 µM	0.326 µM	1.44 µM	1.41 µM
COc1cc2c(cc1NC(=O)C(Cl)Cl)-c1ccc(NC(=O)C(Cl)Cl)cc1C2	1.16 µM	0.499 µM	2 µM	0.136 µM	0.271 µM	11.9 µM	> 89.6 µM	2.52 µM	12.5 µM	0.953 µM	> 34.7 µM	0.687 µM	2.53 µM	5.27 µM	24.2 µM	1.04 µM	5.56 µM	0.407 µM	1.1 µM	5.58 µM
CN1C(=NCCO)NS(=O)(=O)c2ccccc21			> 100 µM		> 100 µM		> 100 µM		> 100 µM		> 100 µM		> 100 µM		> 100 µM		> 100 µM		> 100 µM	> 100 µM
